Reference: patent publication US20260285903A1, “SYNTHESIZED BIOLOGICALLY ACTIVE COMPOUNDS AND METHODS OF MAKING AND USING” (Georgia State University Research Foundation, Inc., priority 2023, published 2026)

Columns and labels:
[1] = Chemical stability at various pH / in acidic PBS (HPLC); format: physicochemical
Text: (§1) The main reason for failure in drug development is poor biopharmaceutical properties, which include low aqueous solubility, chemical instability.
(§2) The biopharmaceutical properties of the synthesized M13 (5-glutathione-6-shogaol) were characterized.

[2] = Kinetic solubility; format: physicochemical
Text: as §1, §2

[3] = Single-dose maximum tolerated dose (MTD) general toxicity study; format: in vivo, CD-1 mice
Procedure: A general toxicity study was performed by using maximum tolerated dose (MTD) of M13. Eight-week old mice were orally administered 1000 mg/kg or with PBS. On day one and day 7, mice were examined for weight loss and clinical scores were noted. Clinical signs were scored by assessing activity, appearance, and body condition for seven days.
To further determine the potential acute toxicity of M13 in vivo, a single-dose maximum tolerated dose (MTD) study of M13 was performed in CD-1 mice. Eight-week-old female mice were orally administered a single dose of M13 (1000 mg/kg) or PBS (as control) on day 0 and subjected to regular water and diet for 7 days.

[4] = biological target: CDK6 (Homo sapiens, UniProt Q00534); experiment: Radiometric 33P kinase assay, 376 Wild Type Kinase Panel; format: biochemical; details: 20 μM M13, 10 μM ATP; read-out: inhibition of enzyme activity relative to control
Text: (§3) It was hypothesized that M13 may target kinases to reduce the inflammatory response. Determination and improvement of the selectivity of a compound by screening a large part of the kinome are of pivotal importance in the discovery of M13 signaling pathways for its anti-inflammatory activities. Radiometric assays were used based on the transfer of ^33P-labeled phosphate from ATP to the kinase substrates found in the 376 Wild Type Kinase Panel and 17 Lipid Kinase Panel (Reaction Biology) and a broad kinase selectivity screen for the inhibitory activity of M13 was performed. Briefly, radiometric assays are based on the transfer of 10 μM ^33P-labelled phosphate from ATP to the kinase substrate. […] FIGS. 2A and 2B show the targeted inhibitor effects of M13 on lipid kinases (FIG. 2A) and protein kinases (FIG. 2B).

[5] = biological target: RIPK4 (Homo sapiens, UniProt P57078); experiment: as above; format: biochemical; details: 20 μM M13, 10 μM ATP; read-out: inhibition of enzyme activity relative to control
Text: as §3

[6] = biological target: TRKB (Homo sapiens, UniProt Q16620); experiment: as above; format: biochemical; details: 20 μM M13, 10 μM ATP; read-out: inhibition of enzyme activity relative to control
Text: as §3

[7] = tested on: NF-κB signaling pathway; experiment: NF-κB-dependent luciferase activity in NF-κB/293/GFP-Luc cells treated with TNF-α; format: cell-based
Procedure: First, the anti-inflammatory activity of MLY compounds on the NF-κB signaling pathway was examined using the NF-xB/293/GFP-LucTnl cell line (System Biosciences). This cell line is specifically designed for use in quantitatively monitoring (by luciferase intensity) transcriptional activation related to the NF-κB signal transduction pathway in vitro. Treatment of NF-κB/293/GFP-Luc™ cells with 10 ng/ml TNF-α for 18 hours induced strong activation of the NF-κB signal transduction pathway (FIGS. 8A and 8B). […] MLY2 and MLY8 induced a strongest 90% reduction of NF-κB activation the anti-inflammatory effect of MLY 2 and 8 was dose-related (FIG. 9). The dose to reduce the NF-κB activation by 50% was […] for M13, 5 μM for MLY2 and 11 μM for MLY8 (FIG. 9).

[8] = tested on: 25 selected targets; experiment: In vitro evaluation of safety and toxicity (InVEST) screening
Procedure: Safety screening of M13 was performed using an in vitro evaluation of safety and toxicity (InVEST). The effects of M13 was tested against 25 selected targets, including factors known to be involved in toxicity in humans.

[9] = tested on: HC-CSC; experiment: MTT viability assay, 2D culture; format: cell-based, human
Procedure: (§4) PBMCs were provided by STEMCELL Technologies (STEMCELL Canada Inc.) and maintained in ImmunoCult™-XF T-cell Expansion Medium (Cat #10981). HIEC-6 cells were maintained in OptiMEM 1 Reduced Serum Medium supplemented with 20 mM HEPES, 10 mM GlutaMAX, 10 ng/mL Epidermal Growth Factor, 4% (v/v) fetal bovine serum (FBS), and 1% penicillin-streptomycin (PS). HCT-116 cells were maintained in ATCC-formulated McCoy's 5a medium, supplemented with 10% (v/v) FBS and 1% PS. Caco-2/BBe cells were grown in DMEM supplemented with 10% (v/v) FBS and 1% PS (v/v). Human colon cancer stem cells (HC-CSC) were maintained in complete growth media with serum and antibiotics (Cat #M36112-39S) from Celprogen Inc. (Torrance, CA, USA).
(§5) The […] (MTT) assay was used to study the effects of M13 on the viability of four 2D-cultured human intestinal cell lines (HIEC-6, HCT-116, Caco-2/BBe, and HC-CSC).

[10] = tested on: HCT-116; experiment: MTT viability assay, 2D culture; format: cell-based, human
Procedure: as §4, §5

[11] = tested on: Caco-2/BBe cells; experiment: MTT viability assay, 2D culture; format: cell-based, human
Procedure: as §4, §5
Next, the anti-cancer activities of free M13, NL, and M13-NL were compared against Caco-2/BBe cells.

[12] = tested on: cancer-related proteins; experiment: Proteome Profiler Human XL Oncology Array on Caco-2/BBe cell lysates; format: cell-based; details: 24 hours
Procedure: (§6) The mechanism by which M13 exerts its anti-cancer effects was explored. Cell lysates of Caco-2/BBe cells incubated for 24 hours with free M13, NL, or M13-NL were hybridized on cancer-related protein array membranes (Proteome Profiler™ Human XL Oncology Array), and cell cycle control/phosphorylation profiling protein antibody microarray slides (Cell Cycle Control Phospho Antibody Array).

[13] = tested on: cell cycle control/phosphorylation proteins; experiment: Cell Cycle Control Phospho Antibody Array on Caco-2/BBe cell lysates; format: cell-based, human; details: 24 hours
Procedure: as §6

[14] = tested on: human normal colon fibroblast cells (CCD-18Co); details: cited from earlier work
[15] = tested on: normal lung cells (IMR-90); details: cited from earlier work
[16] = CD-1 mice, single oral dose 1000 mg/kg, day 7

Sequence of TRKB (Q16620 32-822): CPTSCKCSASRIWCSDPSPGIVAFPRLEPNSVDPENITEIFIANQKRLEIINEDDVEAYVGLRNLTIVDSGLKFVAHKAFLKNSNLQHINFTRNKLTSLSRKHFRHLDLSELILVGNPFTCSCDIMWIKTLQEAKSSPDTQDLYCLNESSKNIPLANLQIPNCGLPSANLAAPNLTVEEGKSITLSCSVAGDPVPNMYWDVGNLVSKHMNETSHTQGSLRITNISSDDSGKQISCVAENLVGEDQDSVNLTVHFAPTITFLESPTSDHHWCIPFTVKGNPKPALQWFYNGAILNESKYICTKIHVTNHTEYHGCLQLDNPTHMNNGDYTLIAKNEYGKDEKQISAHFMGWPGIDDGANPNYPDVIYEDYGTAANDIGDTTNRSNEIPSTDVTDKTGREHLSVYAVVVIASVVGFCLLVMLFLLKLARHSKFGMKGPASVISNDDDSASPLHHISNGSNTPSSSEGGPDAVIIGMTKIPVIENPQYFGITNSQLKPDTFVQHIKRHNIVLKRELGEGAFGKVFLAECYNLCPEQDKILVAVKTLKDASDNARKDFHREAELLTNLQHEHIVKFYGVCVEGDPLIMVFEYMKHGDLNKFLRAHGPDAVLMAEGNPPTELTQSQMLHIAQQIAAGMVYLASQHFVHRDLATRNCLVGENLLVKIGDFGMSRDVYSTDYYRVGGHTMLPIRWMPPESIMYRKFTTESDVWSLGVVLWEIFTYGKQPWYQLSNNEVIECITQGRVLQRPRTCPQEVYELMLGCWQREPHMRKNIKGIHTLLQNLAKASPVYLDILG
Sequence of CDK6 (Q00534 whole entry): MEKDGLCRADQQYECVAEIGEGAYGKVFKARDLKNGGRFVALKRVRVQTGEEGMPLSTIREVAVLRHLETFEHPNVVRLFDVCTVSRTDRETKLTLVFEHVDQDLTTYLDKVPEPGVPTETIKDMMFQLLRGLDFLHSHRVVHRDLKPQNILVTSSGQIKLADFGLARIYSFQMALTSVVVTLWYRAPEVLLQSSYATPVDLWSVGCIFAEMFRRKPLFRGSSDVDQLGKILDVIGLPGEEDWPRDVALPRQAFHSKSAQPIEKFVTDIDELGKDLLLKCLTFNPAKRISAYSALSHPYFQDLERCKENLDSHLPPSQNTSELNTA
Sequence of RIPK4 (P57078 whole entry): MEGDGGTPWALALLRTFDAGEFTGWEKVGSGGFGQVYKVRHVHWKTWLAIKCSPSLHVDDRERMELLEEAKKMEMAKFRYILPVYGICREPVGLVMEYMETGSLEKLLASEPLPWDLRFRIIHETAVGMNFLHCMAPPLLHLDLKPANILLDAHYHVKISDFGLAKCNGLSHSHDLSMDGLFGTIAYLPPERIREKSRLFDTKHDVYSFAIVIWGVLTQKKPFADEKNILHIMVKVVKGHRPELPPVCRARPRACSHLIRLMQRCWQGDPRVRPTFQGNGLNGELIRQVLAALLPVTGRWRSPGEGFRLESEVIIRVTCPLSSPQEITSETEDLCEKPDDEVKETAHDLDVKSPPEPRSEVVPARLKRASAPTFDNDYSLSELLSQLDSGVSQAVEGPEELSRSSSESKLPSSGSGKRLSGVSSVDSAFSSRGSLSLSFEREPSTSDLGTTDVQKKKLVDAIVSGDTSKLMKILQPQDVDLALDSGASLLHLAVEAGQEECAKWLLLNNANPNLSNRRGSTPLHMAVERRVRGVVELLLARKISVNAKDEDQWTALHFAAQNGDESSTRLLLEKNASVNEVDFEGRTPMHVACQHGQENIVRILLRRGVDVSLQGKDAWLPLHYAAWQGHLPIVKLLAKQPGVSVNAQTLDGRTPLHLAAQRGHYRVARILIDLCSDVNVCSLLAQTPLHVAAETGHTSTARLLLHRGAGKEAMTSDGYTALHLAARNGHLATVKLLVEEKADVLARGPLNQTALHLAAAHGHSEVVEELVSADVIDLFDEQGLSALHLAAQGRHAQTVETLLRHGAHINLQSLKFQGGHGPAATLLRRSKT

CCCCCC(CC(=O)CCc1ccc(O)c(OC)c1)SCC(NC(=O)CCC(N)C(=O)O)C(=O)NCC(=O)O (stereo not drawn) [M13, 5-glutathione-6-shogaol]
relative content of M13 before and after incubation (HPLC) ([1]; 37° C., 2 h, acidic PBS (pH=5.0 or 3.0)): consistent before and after incubation
stability at various pH levels ([1]; pH 2 to pH 10): very stable
solubility kinetic ([2]; Example 1): > 200 µM
solubility kinetic ([2]; as printed in Example 6): > 200 µM
death or differences in physiological indices ([3]; CD-1 mice, single oral dose 1000 mg/kg, 7 days, vs PBS): no significant death or differences
body weight change, spleen-to-body weight ratio, blood physiological and biochemical indices [3, 16]: no significant difference
pathological signs in the anatomical organs [3, 16]: no pathological signs
MTD at 168 h ([3]; mouse, in vivo, single-dose oral, mice): > 1000 mg/kg
weight loss and clinical signs ([3]; oral 1000 mg/kg, seven days of observation, vs PBS): No significant changes
white blood cell number, red blood cell number, hemoglobin levels, parameters of hepatic or renal function ([3]; oral 1000 mg/kg, vs PBS): no significant differences
inhibition at 20 µM [4]: 30 to 45%
inhibition at 20 µM [5]: 30 to 45%
inhibition at 20 µM [6]: 30 to 45%
activity at 20 µM ([7]; M13 20 μM, TNF-α 10 ng/ml, 18 hours, read-out: RLU (% with TNFα)): 87.2 ± 8.29%
activity at 50 µM ([7]; M13 50 μM, TNF-α 10 ng/ml, 18 hours, read-out: RLU (% with TNFα)): 9.75 ± 2.78%
activity at 100 µM ([7]; M13 100 μM, TNF-α 10 ng/ml, 18 hours, read-out: RLU (% with TNFα)): 0.81 ± 0.22%
IC50 ([7]; read-out: dose to reduce the NF-κB activation by 50%): ~29 µM
effect on the activities of 25 assorted targets from five target classes [8]: did not have any significant effect
inhibition of GPCR targets, ion channel (5-HT3), phosphodiesterase, protease thrombin alpha [8]: did not inhibit
modulation of the activity of the nuclear receptor AHR [8]: did not significantly modulate
fold by which IC50 against HIEC-6 is higher ([9]; HIEC-6 vs HC-CSC): 5.8 fold
IC50 ([9]; Homo sapiens, 24 h incubation): 17.4 µM
fold by which IC50 against HIEC-6 is higher ([10]; HIEC-6 vs HCT-116): 2.5 fold
IC50 ([10]; Homo sapiens, HCT-116, 24 h incubation): 40.1 µM
fold by which IC50 against HIEC-6 is higher ([11]; HIEC-6 vs Caco-2/BBe): 6 fold
IC50 ([11]; Homo sapiens, Caco-2, 24 h): 16.7 µM
22 cancer-related proteins, expression vs control group [12]: significantly down-regulated
CDC25A and phosphorylated CDC25A (p-CDC25A) vs control and NL groups [13]: down-regulated
toxicity [14]: low toxicity
toxicity [15]: low toxicity
